Measurements as given in patent US8088776B2 (Eli Lilly and Company, priority 2006, dated 2012).

Assays:
[1] = biological target: T1, 11β-HSD1 in primary human aortic smooth muscle cells (AoSMC) (Homo sapiens, UniProt P28845); assay: Human Aortic Smooth Muscle Cell Assay (cortisone to cortisol conversion); format: cell-based; settings: AoSMC induced with hTNFα; cortisol by time resolved immunoassay
T1 construct: containing 12 ng/mL hTNFα to induce expression of 11β-HSD1; endogenous in cells; host or cells: primary human aortic smooth muscle cells (AoSMC), induced with hTNFα
Experimental: Human Aortic Smooth Muscle Cell Assay
Primary human aortic smooth muscle cells (AoSMC) are cultured in 5% FBS growth medium to a passage number of 6, then pelleted by centrifugation and resuspended at a density of 9×10^4 cells/mL in 0.5% FBS assay medium containing 12 ng/mL hTNFα to induce expression of 11β-HSD1. Cells are seeded into 96-well tissue culture assay plates at 100 μL/well (9×10^3 cells/well) and incubated for 48 hours at 37° C., 5% CO2. Following induction, cells are incubated for 4 hours at 37° C., 5% CO2 in assay medium containing test compounds then treated with 10 μL/well of 10 μM cortisone solubilized in assay medium, and incubated for 16 hours at 37° C., 5% CO2. Medium from each well is transferred to a plate for subsequent analysis of cortisol using a competitive fluorescence resonance time resolved immunoassay. In solution, an allophycocyanin (APC)-cortisol conjugate and free cortisol analyte compete for binding to a mouse anti-cortisol antibody/Europium (Eu)-anti mouse IgG complex. Higher levels of free cortisol result in diminishing energy transfer from the Europium-IgG to the APC-cortisol complex resulting in less APC fluorescence. Fluorescent intensities for Europium and APC are measured using a LJL Analyst AD. Europium and APC excitation is measured using 360 nm excitation and 615 nm and 650 nm emission filters respectively. Time resolved parameters for Europuium were 1000 μs integration time with a 200 μs delay. APC parameters are set at 150 μs integration time with a 50 μs delay. Fluorescent intensities measured for APC are modified by dividing by the Eu fluorescence (APC/Eu). This ratio is then used to determine the unknown cortisol concentration by interpolation using a cortisol standard curve fitted with a 4-parameter logistic equation. These concentrations are then used to determine compound activity by plotting concentration versus % inhibition, fitting with a 4-parameter curve and reporting the IC50.

[2] = tested on: cortisone to cortisol conversion (11β-HSD1) in male C57BL/6 mice; assay: Acute In Vivo Cortisone Conversion Assay; settings: oral dose of 10 mg/kg, cortisone challenge 16 hours post dose, serum cortisol
Experimental: Acute In Vivo Cortisone Conversion Assay
In general, compounds are dosed orally into mice, the mice are challenged with a subcutaneous injection of cortisone at a set timepoint after compound injection, and the blood of each animal is collected some time later. Separated serum is then isolated and analyzed for levels of cortisone and cortisol by LC-MS/MS, followed by calculation of mean cortisol and percent inhibition of each dosing group. Specifically, male C57BL/6 mice are obtained from Harlan Sprague Dawley at average weight of 25 grams. Exact weights are taken upon arrival and the mice randomized into groups of similar weights. Compounds are prepared in 1% w-w HEC, 0.25% w-w polysorbate 80, 0.05% w-w Dow Corning antifoam #1510-US at various doses based on assumed average weight of 25 grams. Compounds are dosed orally, 200 μl per animal, followed by a subcutaneous dose, 200 μl per animal, of 30 mg/kg cortisone at 1 to 24 hours post compound dose. At 10 minutes post cortisone challenge, each animal is euthanized for 1 minute in a CO2 chamber, followed by blood collection via cardiac puncture into serum separator tubes. Once fully clotted, tubes are spun at 2500×g, 4° C. for 15 minutes, the serum transferred to wells of 96-well plates (Corning Inc, Costar #4410, cluster tubes, 1.2 ml, polypropylene), and the plates are frozen at −20° C. until analysis by LC-MS/MS. […]

[3] = biological target: recombinant human 11β-HSD type 1 enzyme (Homo sapiens, UniProt P28845); assay: 11β-HSD Type 1 Enzyme Assay (NADPH fluorescence); format: biochemical; settings: three hour incubation, read-out: Human 11-βHSD1 IC50
Experimental: 11β-HSD Type 1 Enzyme Assay
Human 11β-HSD type 1 activity is measured by assaying NADPH production by fluorescence assay. Solid compounds are dissolved in DMSO to a concentration of 10 mM. Twenty microliters of each are then transferred to a column of a 96-well polypropylene Nunc plate where they are further diluted 50-fold followed by subsequent two-fold titration, ten times across the plate with additional DMSO using a Tecan Genesis 200 automated system. Plates are then transferred to a Tecan Freedom 200 system with an attached Tecan Temo 96-well head and an Ultra 384 plate reader. Reagents are supplied in 96-well polypropylene Nunc plates and are dispensed individually into black 96-well Molecular Devices High Efficiency assay plates (40 μL/well capacity) in the following fashion: 9 μL/well of substrate (2.22 mM NADP, 55.5 μM Cortisol, 10 mM Tris, 0.25% Prionex, 0.1% Triton X100), 3 μL/well of water to compound wells or 3 μL to control and standard wells, 6 μL/well recombinant human 11β-HSD type 1 enzyme, 2 μL/well of compound dilutions. […] Final DMSO concentration is 0.5% for all compounds, controls and standards. […] Plates are then shaken once more for 15 seconds then placed into an Ultra 384 microplate reader (355EX/460EM) for detection of NADPH fluorescence.

T1 sequence (P28845 whole entry): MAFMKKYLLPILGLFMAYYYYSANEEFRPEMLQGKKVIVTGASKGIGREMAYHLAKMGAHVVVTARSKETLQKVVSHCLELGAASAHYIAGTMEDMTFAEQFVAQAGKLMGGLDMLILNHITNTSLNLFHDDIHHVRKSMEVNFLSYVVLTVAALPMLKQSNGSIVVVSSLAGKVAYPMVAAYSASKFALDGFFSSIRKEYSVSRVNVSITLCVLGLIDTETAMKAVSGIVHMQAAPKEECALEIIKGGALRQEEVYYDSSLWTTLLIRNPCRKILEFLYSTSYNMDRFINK
recombinant human 11β-HSD type 1 enzyme, sequence (P28845 whole entry): as above

Row | Compound | IC50 [1] [nM] | % Inhibition after 16 hours (dose of 10 (mg/kg)) [2] [%] | IC50 [3] [nM]
1 | O=C(c1ccc(-c2cc(Cl)c(C[C@@H]3CCN(C4CCOCC4)C3=O)c(Cl)c2)cc1)N1CCS(=O)(=O)CC1 [Example 99, (R)-3-[3,5-Dichloro-4′-(1,1-dioxo-116-thiomorpholine-4-carbonyl)-biphenyl-4-ylmethyl]-1-(tetrahydro-pyran-4-yl)-pyrrolidin-2-one] | 72.8 |  | 
2 | O=C(c1ccc(-c2cc(Cl)c(C[C@@H]3CCN(C4CCOCC4)C3=O)c(Cl)c2)cc1)N1CCC(C(F)(F)F)CC1 [Example 95, (R)-3-[3,5-dichloro-4′-(4-trifluoromethyl-piperidine-1-carbonyl)-biphenyl-4-ylmethyl]-1-(tetrahydro-pyran-4-yl)-pyrrolidin-2-one] |  | 80 | 
3 | O=C(c1ccc(-c2cc(Cl)c(CC3CCN(C4CCCCC4)C3=O)c(Cl)c2)cc1)N1CCNCC1 (stereo not shown) [Example 49, 1-cyclohexyl-3-[3,5-dichloro-4′-(piperazine-1-carbonyl)-biphenyl-4-ylmethyl]-pyrrolidin-2-one] | 11.4 |  | 
4 | O=C(c1ccc(-c2cc(Cl)c(CC3CCN([C@H]4CC[C@@H](O)CC4)C3=O)c(Cl)c2)cc1)N1CCS(=O)(=O)CC1 (stereo partly drawn) [Example 74, 3-[3,5-Dichloro-4′-(1,1-dioxo-1-lambda*6*-thiomorpholine-4-carbonyl)-biphenyl-4-ylmethyl]-cis-1-(4-hydroxy-cyclohexyl)-pyrrolidin-2-one] | 6 |  | 
5 | O=C(c1ccc(-c2cc(Cl)c(CC3CCN(C4CCCCC4)C3=O)c(Cl)c2)cc1)N1CCOCC1 (stereo not shown) [Example 4, 1-Cyclohexyl-3-[3,5-dichloro-4′-(morpholine-4-carbonyl)-biphenyl-4-ylmethyl]-pyrrolidin-2-one] | 4.3 |  | 
6 | O=C(c1ccc(-c2cc(Cl)c(CC3CCN(C4CCCCC4)C3=O)c(Cl)c2)cc1)N1CCN(CCF)CC1 (single isomer, unassigned) [Example 62, 1-cyclohexyl-3-{3,5-dichloro-4′-[4-(2-fluoro-ethyl)-piperazine-1-carbonyl]-biphenyl-4-ylmethyl}-pyrrolidin-2-one] |  | 85 | 115
7 | O=C(c1ccc(-c2cc(Cl)c(C[C@@H]3CCN(C4CC=CCC4)C3=O)c(Cl)c2)cc1)N1CCC(C(F)(F)F)CC1 (stereo partly drawn) [Example 92, (R)-1-cyclohex-3-enyl-3-[3,5-dichloro-4′-(4-trifluoromethyl-piperidine-1-carbonyl)-biphenyl-4-ylmethyl]-pyrrolidin-2-one] | 36.8 |  | 633
8 | COCCN(CCOC)C(=O)c1ccc(-c2cc(Cl)c(CC3CCN(C4CCCCC4)C3=O)c(Cl)c2)cc1 (stereo not shown) [Example 5] | 6.4 |  | 
